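A five-concentration, 48-hour dose response in 96-well plates underlies each endpoint, interpolated linearly between surrounding concentrations. At the GI50, growth is halved. TGI is the concentration that stops growth completely.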
Tests used:
Assay in all cases: DTP human tumour cell line panel, 48 h
[1] = system: UO-31 renal
[2] = system: A549 NSCLC
[3] = system: MALME-3M melanoma
[4] = system: M14 melanoma
[5] = system: SNB-75 CNS
[6] = system: CCRF-CEM leukemia
[7] = system: HL-60(TB) leukemia
[8] = system: U251 CNS
[9] = system: KM12 colon
[10] = system: T-47D breast

CC1(C)Oc2ccccc2[N+]([O-])=C1c1ccccc1
TGI [1]: > 100 µM
TGI [2]: > 100 µM
TGI [3]: > 100 µM
TGI [4]: > 100 µM
TGI [5]: > 100 µM
TGI [6]: > 100 µM
TGI [7]: > 100 µM
TGI [8]: > 100 µM

OCCCCCNc1ccnc2cc(Cl)ccc12
TGI [1]: > 100 µM
TGI [2]: > 100 µM
TGI [3]: > 100 µM
TGI [4]: > 100 µM
TGI [9]: > 100 µM
TGI [5]: > 100 µM
TGI [6]: > 100 µM
TGI [7]: > 100 µM
TGI [8]: > 100 µM

O=C(CC1SC(=Nc2ccccc2Cl)NC1=O)Nc1ccc(Cl)cc1 (stereo not drawn)
TGI [1]: > 100 µM
TGI [2]: > 100 µM
TGI [3]: > 100 µM
TGI [4]: > 100 µM
TGI [9]: > 100 µM
TGI [6]: > 100 µM
TGI [7]: > 100 µM
TGI [8]: > 100 µM

COc1c(N2CCN(CN3C(=O)C(=O)c4ccccc43)C(C)C2)c(F)cc2c(=O)c(C(=O)O)cn(C3CC3)c12 (stereo not drawn)
GI50 [1]: > 100 µM
TGI [1]: > 100 µM
GI50 [2]: > 100 µM
TGI [2]: > 100 µM
GI50 [4]: > 100 µM
TGI [4]: > 100 µM
GI50 [9]: 76.2 µM
TGI [9]: > 100 µM
GI50 [5]: > 100 µM
TGI [5]: > 100 µM
GI50 [7]: > 100 µM
TGI [7]: > 100 µM
GI50 [8]: > 100 µM
TGI [8]: > 100 µM

Cc1nc(-n2nc(-c3ccccc3)cc2-c2ccccc2)sc1C(=O)/C=C/c1ccc(Cl)cc1
TGI [1]: 21.1 µM
TGI [2]: 64.9 µM
TGI [3]: 52.5 µM
TGI [9]: 25.6 µM
TGI [5]: > 100 µM
TGI [6]: 78.1 µM
TGI [7]: 33.1 µM
TGI [8]: 36.9 µM

CN=C(N)NC
TGI [1]: > 100 µM
TGI [2]: > 100 µM
TGI [3]: > 100 µM
TGI [4]: > 100 µM
TGI [9]: > 100 µM
TGI [5]: > 100 µM
TGI [6]: > 100 µM
TGI [7]: > 100 µM
TGI [8]: > 100 µM

[N-]=[N+]=NC1C2CC3CC(C2)CC1C3 (stereo not drawn)
TGI [1]: > 100 µM
TGI [2]: > 100 µM
TGI [3]: > 100 µM
TGI [4]: > 100 µM
TGI [9]: > 100 µM
TGI [5]: > 100 µM
TGI [6]: > 100 µM
TGI [8]: > 100 µM

CCN(CC)/[N+]([O-])=N/OCC(C)O (stereo not drawn)
TGI [1]: > 100 µM
TGI [2]: > 100 µM
TGI [4]: > 100 µM
TGI [9]: > 100 µM
TGI [5]: > 100 µM
TGI [6]: > 100 µM
TGI [7]: > 100 µM
TGI [8]: > 100 µM

COc1cc2ccc3c4cc(OC)c(OC(C)C)cc4c[n+](C)c3c2cc1OC
TGI [1]: > 100 µM
TGI [2]: > 100 µM
TGI [3]: > 100 µM
TGI [4]: > 100 µM
TGI [9]: > 100 µM
TGI [5]: > 100 µM
TGI [6]: > 100 µM
TGI [7]: > 100 µM
TGI [8]: > 100 µM

Fc1ccc2c(c1)cc1ccc3cccc4ccc2c1c34
TGI [1]: > 100 µM
TGI [2]: > 100 µM
TGI [3]: > 100 µM
TGI [4]: > 100 µM
TGI [9]: > 100 µM
TGI [5]: > 100 µM
TGI [6]: > 100 µM
TGI [7]: > 100 µM
TGI [8]: > 100 µM

CCCCCN(CCCCC)C(=O)[C@H](CCC(=O)OCc1ccccc1)NC(=O)c1cc2ccccc2[nH]1
TGI [1]: > 100 µM
TGI [2]: > 100 µM
TGI [3]: > 100 µM
TGI [4]: > 100 µM
TGI [9]: > 100 µM
TGI [5]: > 100 µM
TGI [6]: > 100 µM
TGI [7]: > 100 µM
TGI [8]: > 100 µM

O=C(Nc1ccc(N2CCNCC2)cn1)c1[nH]ncc1Nc1ncnc2sccc12
GI50 [1]: 14.4 µM
TGI [1]: 32 µM
GI50 [2]: 1.66 µM
TGI [2]: 3.45 µM
GI50 [3]: 1.43 µM
TGI [3]: 3.19 µM
GI50 [4]: 1.86 µM
TGI [4]: 3.65 µM
GI50 [9]: 3.31 µM
TGI [9]: 11.5 µM
GI50 [5]: 4.89 µM
TGI [5]: 21.2 µM
GI50 [6]: 1.25 µM
TGI [6]: 6.97 µM
GI50 [7]: 2.99 µM
TGI [7]: 22.6 µM
GI50 [8]: 1.62 µM
TGI [8]: 3.35 µM

COC(=O)c1ccc(/C=C/S(=O)(=O)c2ccccc2)cc1
TGI [1]: > 100 µM
TGI [2]: > 100 µM
TGI [3]: > 100 µM
TGI [4]: > 100 µM
TGI [9]: > 100 µM
TGI [5]: > 100 µM
TGI [6]: > 100 µM
TGI [7]: > 100 µM
TGI [8]: > 100 µM

Cc1nc2ccccc2c(/C=C/c2ccccc2)c1C(=O)/C=C/c1ccccc1
GI50 [1]: 1.33 µM
TGI [1]: 2.61 µM
GI50 [2]: 2.29 µM
TGI [2]: 6.06 µM
GI50 [3]: 1.76 µM
TGI [3]: 3.24 µM
GI50 [9]: 1.97 µM
TGI [9]: 4.7 µM
GI50 [6]: 2.51 µM
TGI [6]: > 100 µM
GI50 [7]: 2.45 µM
TGI [7]: 6.51 µM
GI50 [8]: 1.57 µM
TGI [8]: 2.93 µM

Cn1cc2ccccc2c1-c1nc(F)nc(Nc2ccc(N)cc2)n1
TGI [1]: 53.8 µM
TGI [2]: 65.3 µM
TGI [3]: 39.2 µM
TGI [4]: 27.3 µM
TGI [9]: 41.9 µM
TGI [5]: 42.9 µM
TGI [6]: 67.5 µM
TGI [7]: > 100 µM
TGI [8]: 26.4 µM

C/C=C(\C)C(=O)N1c2ccccc2CC1c1c(C)[nH]c2ccccc12 (stereo not drawn)
TGI [1]: > 100 µM
TGI [2]: > 100 µM
TGI [3]: > 100 µM
TGI [4]: > 100 µM
TGI [9]: > 100 µM
TGI [5]: > 100 µM
TGI [6]: > 100 µM
TGI [7]: > 100 µM
TGI [8]: > 100 µM

CCOc1ncnc2ccc(Cl)c(I)c12
TGI [1]: 75.5 µM
TGI [2]: > 100 µM
TGI [3]: > 100 µM
TGI [4]: > 100 µM
TGI [9]: > 100 µM
TGI [6]: > 100 µM
TGI [7]: > 100 µM
TGI [8]: > 100 µM

CC(C)(C)C1CCC(=O)C(C(O)CC2CC(=O)N(c3ccccc3)C(=O)C2)C1 (stereo not drawn)
TGI [1]: > 100 µM
TGI [2]: > 100 µM
TGI [3]: > 100 µM
TGI [4]: > 100 µM
TGI [9]: > 100 µM
TGI [5]: > 100 µM
TGI [6]: > 100 µM
TGI [7]: > 100 µM
TGI [8]: > 100 µM

CCN(CC)CCOc1ccc(Cc2ccccc2)cc1
GI50 [1]: 18.4 µM
TGI [1]: > 100 µM
GI50 [10]: 25.5 µM
TGI [10]: > 100 µM
GI50 [2]: 49.8 µM
TGI [2]: > 100 µM
GI50 [3]: 17.2 µM
TGI [3]: 43.1 µM
GI50 [4]: 17.3 µM
TGI [4]: 34.6 µM
GI50 [9]: 25.6 µM
TGI [9]: > 100 µM
GI50 [5]: 19 µM
TGI [5]: 94.9 µM
GI50 [8]: 26.5 µM
TGI [8]: > 100 µM

COC(=O)C1=C(O)c2cc3c(cc2[C@H](c2cc(OC)c(OC)c(OC)c2)C1)OCO3
TGI [1]: 36.3 µM
TGI [2]: > 100 µM
TGI [3]: > 100 µM
TGI [4]: > 100 µM
TGI [9]: 54.3 µM
TGI [5]: > 100 µM
TGI [6]: > 100 µM
TGI [7]: 67.6 µM
TGI [8]: > 100 µM

CCOC(=O)NC(=O)c1cn(C2OC(COC(=O)CCCCCCCCC(=O)OCC3OC(n4cc(C(=O)NC(=O)OCC)c(=O)[nH]c4=O)C4OC(C)(C)OC34)C3OC(C)(C)OC32)c(=O)[nH]c1=O (stereo not drawn)
TGI [1]: > 100 µM
TGI [2]: > 100 µM
TGI [3]: > 100 µM
TGI [4]: > 100 µM
TGI [9]: > 100 µM
TGI [5]: > 100 µM
TGI [6]: > 100 µM
TGI [7]: > 100 µM
